According to patent US8664206B2, “Diastereomers of 2-methylene-19-nor-22-methyl-1α,25-dihydroxyvitamin D3” (Wisconsin Alumni Research Foundation, priority 2010, dated 2014):
“Also recorded” adds a separate entry of the source.

Key:
[1] = system: 24-hydroxylase (24OHase) gene promoter; assay: In vitro transcription assay (24-hydroxylase promoter-luciferase in ROS 17/2.8 bone cells); type: cell-based, rat
Procedure: Transcription activity was measured in ROS 17/2.8 (bone) cells that were stably transfected with a 24-hydroxylase (24OHase) gene promoter upstream of a luciferase reporter gene (Arbour et al., 1998). Cells were given a range of doses. Sixteen hours after dosing the cells were harvested and luciferase activities were measured using a luminometer. RLU=relative luciferase units.

[2] = system: HL-60 cells; assay: HL-60 differentiation (nitro blue tetrazolium reduction); type: cell-based, human
Procedure: The study drugs were dissolved in ethanol and the concentrations determined using UV spectrophotometry. Serial dilutions were prepared so that a range of drug concentrations could be tested without changing the final concentration of ethanol (≦0.2%) present in the cell cultures.
Human promyelocytic leukemia (HL60) cells were grown in RPMI-1640 medium containing 10% fetal bovine serum. The cells were incubated at 37° C. in the presence of 5% CO2.
HL60 cells were plated at 1.2×10^5 cells/ml. Eighteen hours after plating, cells in duplicate were treated with drug. Four days later, the cells were harvested and a nitro blue tetrazolium reduction assay was performed (Collins et al., 1979; J. Exp. Med. 149:969-974). The percentage of differentiated cells was determined by counting a total of 200 cells and recording the number that contained intracellular black-blue formazan deposits. Verification of differentiation to monocytic cells was determined by measuring phagocytic activity (data not shown).

[3] = system: Sprague-Dawley rats; assay: Intestinal calcium transport (everted gut sac method); type: in vivo, rat
Procedure: (§1) Male, weanling Sprague-Dawley rats were placed on Diet 11 (0.47% Ca) diet+AEK oil for one week followed by Diet 11 (0.02% Ca)+AEK oil for 3 weeks. The rats were then switched to a diet containing 0.47% Ca for one week followed by two weeks on a diet containing 0.02% Ca. Dose administration began during the last week on 0.02% calcium diet. Four consecutive intraperitoneal doses were given approximately 24 hours apart. Twenty-four hours after the last dose, blood was collected from the severed neck and the concentration of serum calcium determined as a measure of bone calcium mobilization. The first 10 cm of the intestine was also collected for intestinal calcium transport analysis using the everted gut sac method.

[4] = target: T1, vitamin D receptor (full-length recombinant rat receptor) (Rattus norvegicus, UniProt P13053); assay: Vitamin D receptor competitive binding
T1 construct: Full-length recombinant rat receptor was expressed in E. coli; His tag (C); made in house; host or cells: E. coli BL21(DE3) Codon Plus RIL
T1 sequence (P13053 1-423): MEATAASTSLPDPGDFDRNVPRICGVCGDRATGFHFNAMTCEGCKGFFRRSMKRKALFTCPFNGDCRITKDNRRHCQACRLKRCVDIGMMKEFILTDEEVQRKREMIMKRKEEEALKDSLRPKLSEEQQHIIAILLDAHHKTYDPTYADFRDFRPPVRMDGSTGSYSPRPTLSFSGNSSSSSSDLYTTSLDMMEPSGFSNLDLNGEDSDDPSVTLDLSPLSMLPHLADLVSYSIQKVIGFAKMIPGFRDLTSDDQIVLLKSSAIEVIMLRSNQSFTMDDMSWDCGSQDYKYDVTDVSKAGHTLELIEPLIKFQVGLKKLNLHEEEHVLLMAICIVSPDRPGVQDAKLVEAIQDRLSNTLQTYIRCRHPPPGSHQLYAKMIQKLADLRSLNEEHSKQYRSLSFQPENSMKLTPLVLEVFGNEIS
Procedure: Full-length recombinant rat receptor was expressed in E. coli BL21(DE3) Codon Plus RIL cells and purified to homogeneity using two different column chromatography systems. The first system was a nickel affinity resin that utilizes the C-terminal histidine tag on this protein. The protein that was eluted from this resin was further purified using ion exchange chromatography (S-Sepharose Fast Flow). Aliquots of the purified protein were quick frozen in liquid nitrogen and stored at −80° C. until use. For use in binding assays, the protein was diluted in TEDK50 (50 mM Tris, 1.5 mM EDTA, pH 7.4, 5 mM DTT, 150 mM KCl) with 0.1% Chaps detergent. The receptor protein and ligand concentration was optimized such that no more than 20% of the added radiolabeled ligand was bound to the receptor.
Unlabeled ligands were dissolved in ethanol and the concentrations determined using UV spectrophotometry (1,25(OH)2D3: molar extinction coefficient=18,200 and λmax=265 nm; Analogs: molar extinction coefficient=42,000 and λmax=252 nm). Radiolabeled ligand (^3H-1,25(OH)2D3, ˜159 Ci/mmole) was added in ethanol at a final concentration of 1 nM.
Radiolabeled and unlabeled ligands were added to 100 mcl of the diluted protein at a final ethanol concentration of ≦10%, mixed and incubated overnight on ice to reach binding equilibrium. The following day, 100 mcl of hydroxylapatite slurry (50%) was added to each tube and mixed at 10-minute intervals for 30 minutes. The hydroxylapatite was collected by centrifugation and then washed three times with Tris-EDTA buffer (50 mM Tris, 1.5 mM EDTA, pH 7.4) containing 0.5% Titron X-100. After the final wash, the pellets were transferred to scintillation vials containing 4 ml of Biosafe II scintillation cocktail, mixed and placed in a scintillation counter. Total binding was determined from the tubes containing only radiolabeled ligand.

[5] = system: Sprague-Dawley rats; assay: Bone calcium mobilization (serum calcium); type: in vivo, rat
Procedure: as §1

[6] = relative to the native hormone 1,25(OH)2D3 in the same assay, (value for native hormone)/(value for working example), >1 = more active

With `C=C1[C@H](O)CC(=C/C=C2\CCC[C@@]3(C)C2CC[C@@H]3[C@H](C)[C@H](C)CCC(C)(C)O)C[C@H]1O` (stereo partly drawn) [SAG-2, (20R,22R)-2-methylene-19-nor-22-methyl-1α,25-dihydroxyvitamin D3] the EC50 ([1]; Rattus norvegicus) was 6 nM, the “24OHase Transcription Relative Activity” value [1, 6] was 0.05 and the EC50 ([2]; Homo sapiens, HL-60) was 9 nM. For the same molecule, the “HL-60 Differentiation Relative Activity” value [2, 6] was 0.3, the “Net Intestinal Ca2+ Transport (serosal Ca2+ to mucosal Ca2+ ratio, S/M)” value ([3]; at 260 pM dosage) was 0.4^7 and the “intestinal calcium transport activity compared with 1,25(OH)2D3 (in words)” value ([3]; rat, intraperitoneal doses) was “markedly lower than 1,25-(OH)2D3; also recorded: less potency compared to the native hormone; also recorded: little ability to increase transport, except at extremely high concentrations”. For the same molecule, the “binding to the nuclear vitamin D receptor compared with 1,25(OH)2D3 (in words)” value ([4]; competitive binding against 3H-1,25(OH)2D3, recombinant rat receptor) was “less effective than 1,25-(OH)2D3; also recorded: bind the vitamin D receptor”, the “affinity for the nuclear vitamin D receptor, times less than 1,25(OH)2D3” value ([4]; competitive binding, fold LESS affinity than native hormone) was “approximately 4 times” and the Ki ([4]; read-out: Competitive VDR Binding (Ki)) was 0.2 nM. The “Net Bone Ca2+ Mobilization” value ([5]; at 260 pM dosage) was −0.1^7 mg/dL and the “bone calcium mobilization activity compared with 1,25(OH)2D3 (in words)” value ([5]; rat, intraperitoneal doses) was “markedly lower than 1,25-(OH)2D3; also recorded: no net calcemic activity on bone; also recorded: very little to no activity in mobilizing calcium from bone stores; also recorded: little or no ability to mobilize bone calcium, even at extremely high concentrations”.
